In PMC10425983 (ACS Infectious Diseases, 2023):

Assays:
CYP2D6 = CYP2D6 (Homo sapiens, UniProt P10635); assay: CYP inhibition CYP2D6; assay type: in vitro ADME; details: inhibitor class in words
CYP1A2 = target: T1, CYP1A2 (Homo sapiens, UniProt P05177); assay: CYP inhibition CYP1A2; assay type: in vitro ADME
T1 sequence (P05177 1-516): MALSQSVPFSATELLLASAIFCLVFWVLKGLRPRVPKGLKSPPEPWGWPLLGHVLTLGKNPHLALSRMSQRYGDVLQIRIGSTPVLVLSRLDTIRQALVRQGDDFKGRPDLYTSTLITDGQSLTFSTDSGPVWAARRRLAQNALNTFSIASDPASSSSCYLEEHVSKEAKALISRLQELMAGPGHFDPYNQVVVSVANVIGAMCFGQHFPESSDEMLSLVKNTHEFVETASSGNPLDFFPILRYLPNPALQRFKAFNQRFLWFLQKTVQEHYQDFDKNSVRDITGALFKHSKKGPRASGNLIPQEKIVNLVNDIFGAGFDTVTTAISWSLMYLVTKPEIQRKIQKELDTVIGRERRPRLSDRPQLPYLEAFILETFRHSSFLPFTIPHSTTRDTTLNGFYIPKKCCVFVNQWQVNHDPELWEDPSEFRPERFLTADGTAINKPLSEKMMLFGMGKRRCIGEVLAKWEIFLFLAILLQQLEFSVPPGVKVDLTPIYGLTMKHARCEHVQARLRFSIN

[1] = Cytotoxicity toward primary peritoneal mouse macrophages; assay type: cell-based; details: Swiss, mouse, primary peritoneal mouse macrophages (PMM), PMM pCC50, primary mouse macrophages; highest in-test concentration 64 μM
CYP2C8 = target: T2, CYP2C8 (Homo sapiens, UniProt P10632); assay: CYP inhibition CYP2C8; assay type: in vitro ADME
T2 sequence (P10632 1-490): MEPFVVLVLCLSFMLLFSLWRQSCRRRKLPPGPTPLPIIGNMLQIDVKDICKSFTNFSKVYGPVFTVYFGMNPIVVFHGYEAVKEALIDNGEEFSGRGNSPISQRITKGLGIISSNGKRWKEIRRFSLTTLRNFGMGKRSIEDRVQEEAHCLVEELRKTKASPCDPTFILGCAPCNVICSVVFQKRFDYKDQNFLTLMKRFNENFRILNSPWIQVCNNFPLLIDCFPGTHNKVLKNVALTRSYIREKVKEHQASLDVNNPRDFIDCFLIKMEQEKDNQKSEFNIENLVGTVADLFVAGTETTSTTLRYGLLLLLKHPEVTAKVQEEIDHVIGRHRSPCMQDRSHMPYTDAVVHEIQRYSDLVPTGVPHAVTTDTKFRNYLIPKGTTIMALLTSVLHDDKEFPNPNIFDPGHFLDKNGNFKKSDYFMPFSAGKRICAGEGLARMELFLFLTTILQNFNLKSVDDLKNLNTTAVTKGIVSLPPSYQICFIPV

[2] = system: L. infantum (MHOM/MA(BE)/67/ITMAP263) amastigotes; assay: L. infantum intramacrophage amastigote assay; assay type: cell-based, Leishmania infantum
[3] = Thermodynamic aqueous solubility; assay type: physicochemical
CYP3A4 = CYP3A4 (Homo sapiens, UniProt P08684); assay: CYP inhibition CYP3A4; assay type: in vitro ADME; details: inhibitor class in words
Chain of CYP3A4 (P08684 whole entry): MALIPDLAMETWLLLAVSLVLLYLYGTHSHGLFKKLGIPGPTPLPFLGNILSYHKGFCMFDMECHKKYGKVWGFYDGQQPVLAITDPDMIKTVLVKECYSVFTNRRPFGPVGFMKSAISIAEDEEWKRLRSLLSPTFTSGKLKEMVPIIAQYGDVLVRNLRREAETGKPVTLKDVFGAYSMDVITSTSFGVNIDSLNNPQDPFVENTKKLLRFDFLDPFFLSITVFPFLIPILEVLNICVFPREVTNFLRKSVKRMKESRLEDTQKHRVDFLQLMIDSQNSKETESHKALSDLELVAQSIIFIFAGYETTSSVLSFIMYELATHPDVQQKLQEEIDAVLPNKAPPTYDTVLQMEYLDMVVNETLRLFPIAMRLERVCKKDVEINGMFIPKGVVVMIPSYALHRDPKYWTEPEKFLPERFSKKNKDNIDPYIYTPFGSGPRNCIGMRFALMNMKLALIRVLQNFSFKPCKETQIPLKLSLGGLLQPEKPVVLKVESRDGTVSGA

CYP2C9 = CYP2C9 (Homo sapiens, UniProt P11712); assay: CYP inhibition CYP2C9; assay type: in vitro ADME
Chain of CYP2C9 (P11712 whole entry): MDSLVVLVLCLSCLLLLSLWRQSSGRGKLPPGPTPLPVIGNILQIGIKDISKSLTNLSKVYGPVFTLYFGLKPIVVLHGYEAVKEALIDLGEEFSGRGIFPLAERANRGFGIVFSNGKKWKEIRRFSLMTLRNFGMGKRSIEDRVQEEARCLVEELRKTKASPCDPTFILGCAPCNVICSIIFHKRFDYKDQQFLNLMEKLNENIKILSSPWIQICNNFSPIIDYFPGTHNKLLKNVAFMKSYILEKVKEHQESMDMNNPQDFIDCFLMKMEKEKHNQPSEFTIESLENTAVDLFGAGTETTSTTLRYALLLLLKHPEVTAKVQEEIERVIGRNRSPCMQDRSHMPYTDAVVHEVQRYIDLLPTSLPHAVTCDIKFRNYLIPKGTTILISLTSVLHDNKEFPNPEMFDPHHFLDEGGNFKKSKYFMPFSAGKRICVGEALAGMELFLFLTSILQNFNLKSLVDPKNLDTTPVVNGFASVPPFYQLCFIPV

hERG = hERG (Homo sapiens, UniProt Q12809); assay: hERG channel blockage; assay type: biochemical; details: hERG pIC50
Chain of hERG (Q12809 whole entry): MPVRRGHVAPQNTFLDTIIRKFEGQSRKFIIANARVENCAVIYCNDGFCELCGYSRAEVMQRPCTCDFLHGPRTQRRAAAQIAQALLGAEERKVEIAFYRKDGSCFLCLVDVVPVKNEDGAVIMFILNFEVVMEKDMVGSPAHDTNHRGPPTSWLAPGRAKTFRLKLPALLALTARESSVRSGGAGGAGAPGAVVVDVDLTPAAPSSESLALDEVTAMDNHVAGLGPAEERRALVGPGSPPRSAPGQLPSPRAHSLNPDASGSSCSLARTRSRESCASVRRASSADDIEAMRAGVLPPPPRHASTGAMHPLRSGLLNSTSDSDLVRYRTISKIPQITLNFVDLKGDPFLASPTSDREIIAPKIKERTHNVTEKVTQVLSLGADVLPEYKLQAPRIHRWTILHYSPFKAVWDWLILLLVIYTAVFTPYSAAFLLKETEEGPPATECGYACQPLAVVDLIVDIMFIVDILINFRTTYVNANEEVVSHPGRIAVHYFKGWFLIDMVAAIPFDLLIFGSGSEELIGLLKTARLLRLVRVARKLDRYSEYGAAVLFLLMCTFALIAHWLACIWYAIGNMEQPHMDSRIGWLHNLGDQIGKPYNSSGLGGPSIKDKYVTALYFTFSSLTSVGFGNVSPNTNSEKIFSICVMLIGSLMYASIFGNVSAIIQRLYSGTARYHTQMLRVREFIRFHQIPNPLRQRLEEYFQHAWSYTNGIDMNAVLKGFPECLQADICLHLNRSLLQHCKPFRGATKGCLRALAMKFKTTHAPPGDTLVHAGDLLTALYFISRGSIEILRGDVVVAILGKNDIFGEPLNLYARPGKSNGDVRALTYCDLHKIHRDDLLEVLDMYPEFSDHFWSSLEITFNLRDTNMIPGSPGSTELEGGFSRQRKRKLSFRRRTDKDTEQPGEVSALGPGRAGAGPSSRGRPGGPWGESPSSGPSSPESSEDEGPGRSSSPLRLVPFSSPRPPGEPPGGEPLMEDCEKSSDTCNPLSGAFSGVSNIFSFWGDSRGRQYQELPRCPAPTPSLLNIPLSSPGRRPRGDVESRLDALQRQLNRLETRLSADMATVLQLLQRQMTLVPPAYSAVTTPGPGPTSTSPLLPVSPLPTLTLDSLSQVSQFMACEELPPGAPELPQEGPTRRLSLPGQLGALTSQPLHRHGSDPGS

[4] = Rat hepatocyte intrinsic clearance; assay type: in vitro ADME; details: rat, rat hepatocytes
CYP2C19 = CYP2C19 (Homo sapiens, UniProt P33261); assay: CYP inhibition CYP2C19; assay type: in vitro ADME
Chain of CYP2C19 (P33261 whole entry): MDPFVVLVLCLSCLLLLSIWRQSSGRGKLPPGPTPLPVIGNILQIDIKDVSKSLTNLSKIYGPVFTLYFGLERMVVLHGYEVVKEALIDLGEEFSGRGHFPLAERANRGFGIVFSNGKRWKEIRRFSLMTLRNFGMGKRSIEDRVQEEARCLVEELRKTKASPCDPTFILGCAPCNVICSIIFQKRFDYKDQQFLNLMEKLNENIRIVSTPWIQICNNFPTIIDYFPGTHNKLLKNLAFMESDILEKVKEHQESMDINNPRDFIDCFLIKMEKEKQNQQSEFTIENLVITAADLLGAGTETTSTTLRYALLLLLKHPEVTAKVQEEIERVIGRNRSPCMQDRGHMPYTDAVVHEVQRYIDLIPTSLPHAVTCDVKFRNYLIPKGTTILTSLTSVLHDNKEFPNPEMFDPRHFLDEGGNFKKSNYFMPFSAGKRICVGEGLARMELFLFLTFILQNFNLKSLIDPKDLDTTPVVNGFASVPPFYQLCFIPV

[5] = MDCK-wt permeability assay; assay type: in vitro ADME, canine; details: dog
[6] = Human liver microsome intrinsic clearance; assay type: in vitro ADME; details: human, human liver microsomes, pH 7.4, HLM clint

Chain of CYP2D6 (P10635 whole entry): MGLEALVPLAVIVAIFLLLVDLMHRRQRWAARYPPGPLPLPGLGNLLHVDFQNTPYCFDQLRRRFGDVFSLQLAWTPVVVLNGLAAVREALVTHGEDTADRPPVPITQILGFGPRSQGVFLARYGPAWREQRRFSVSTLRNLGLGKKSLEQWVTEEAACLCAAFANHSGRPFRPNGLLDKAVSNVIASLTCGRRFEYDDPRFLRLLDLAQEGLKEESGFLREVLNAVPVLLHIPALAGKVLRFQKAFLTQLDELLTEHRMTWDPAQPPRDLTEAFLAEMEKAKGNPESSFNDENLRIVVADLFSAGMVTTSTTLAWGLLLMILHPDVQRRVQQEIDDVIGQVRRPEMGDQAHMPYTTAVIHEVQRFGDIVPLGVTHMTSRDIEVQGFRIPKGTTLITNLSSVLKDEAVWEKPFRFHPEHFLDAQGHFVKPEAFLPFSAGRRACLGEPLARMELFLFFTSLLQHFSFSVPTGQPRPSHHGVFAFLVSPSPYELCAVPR

Fc1ccc(Nc2c(-c3ccccn3)nc3ccc(C4CC4)cn23)cc1 [Compound 3p, 6-Cyclopropyl-N-(4-fluorophenyl)-2-(pyridin-2-yl)imidazo[1,2-a]pyridin-3-amine]
CYP2D6 inhibition, classification (CYP2D6): moderate inhibition | IC50 (CYP1A2): 0.59 µM | CYP1A2 inhibition, classification (CYP1A2; inhibitor class in words): strong inhibitor | CC50 at 5 days [1]: 7.94 µM | IC50 (CYP2C8): 4.9 µM | CYP2C8 inhibition, classification (CYP2C8; inhibitor class in words): moderate inhibitor | EC50 ([2]; Leishmania infantum, 120 h, read-out: L.inf pEC50 (converted)): 6.31 µM | SI ([2]; ratio CC50 μM (PMM)/EC50 μM (L.inf)): 1 | aq. sol. [3]: 0.7 µM | CYP3A4 inhibition, classification (CYP3A4): moderate inhibition | IC50 (CYP2C9): 0.76 µM | CYP2C9 inhibition, classification (CYP2C9; inhibitor class in words): strong inhibitor | IC50 (hERG): 12.6 µM | hepatocyte CLint [4]: 148 µL/min/1e6 cells | IC50 (CYP2C19): 1.8 µM | CYP2C19 inhibition, classification (CYP2C19; inhibitor class in words): moderate inhibitor | Papp A→B at 2 h, 10 µM [5]: 167 nm/s | microsomal CLint at 3 µM [6]: 91.6 µL/min/mg
